Source: patent US20100104566A1, “ANTITUMOR COMBINATION COMPRISING A MORPHOLINYL ANTHRACYCLINE AND AN ANTIBODY” (NERVIANO MEDICAL SCIENCES S.R.L., priority 2007, published 2010)

Test system: Human prostate carcinoma DU145 cells
Assay: In vivo antitumor efficacy of nemorubicin in combination with bevacizumab (tumor growth delay)
Design: species or system Balb Nu/Nu, male mice (athymic mice)
Settings: DU145 s.c. in athymic mice; for Time to reach 1 g: advanced tumors, bevacizumab 20 mg/kg i.p. day 9, 13, 17, 21, 25, 29, nemorubicin 0.065 mg/kg i.v. day 9, 16, 23; for T-C: delay vs control to reach 1 g, bevacizumab 20 mg/kg i.p., nemorubicin 0.065 mg/kg i.v. q7dx3
Protocol: Materials and Methods: Balb Nu/Nu, male mice (athymic mice from Harlan, Italy) were maintained in cages with paper filter covers, food and bedding sterilized and water acidified. Human prostate carcinoma DU145 cells (from American Type Culture Collection) were implanted subcutaneously in athymic mice (2.5×10^6/cells mice). […] Drug treatments were performed on advanced tumors (when the tumors were palpable). Nemorubicin and bevacizumab were prepared immediately before use ad administered to mice in a volume of 10 ml/kg. Nemorubicin was administered as hydrochloride salt intravenously at a dose of 0.065 mg/kg and treatments were repeated weekly for 3 weeks. Bevacizumab was administered intraperitoneally at a dose of 20 mg/kg on the days 9, 13, 17, 21, 25 and 29 from the day of cell injection. When both compounds were administered on the same day, bevacizumab was administered intraperitoneally immediately before the intravenous injection of nemorubicin. Tumor growth and net body weight were evaluated every 3 days. Tumor growth was assessed by caliper. The two diameters were recorded, and the tumor weight was calculated according to the following formula: length (mm)×width^2 (mm)/2. The effect of the antitumor treatment was determined as the delay in the onset of an exponential growth of tumors [see for reference, Anti Cancer Drugs 7: 437-60, 1996]. This delay (T-C value) was defined as the difference of the time (in days) required for the treatment group (T) and the control group (C) tumors to reach a predetermined size (e.g. 1 g). Toxicity was evaluated on the basis of the body weight reduction.

| Compound | Time to reach 1 g | T-C |
| --- | --- | --- |
| Bevacizumab: monoclonal antibody directed against the vascular endothelial growth factor (VEGF) | 21.31 days | 7.04 days |
| COc1cccc2c1C(=O)c1c(O)c3c(c(O)c1C2=O)C[C@@](O)(C(=O)CO)C[C@@H]3O[C@H]1C[C@H](N2CCO[C@H](OC)C2)[C@H](O)[C@H](C)O1 [Nemorubicin, (8S-cis, 2″S)-7,8,9,10-tetrahydro-6,8,11-trihydroxy-8-(hydroxyacetyl)-1-methoxy-10-{[2,3,6-trideoxy-3-(2-methoxy-4-morpholinyl)-α-L-lyxo-hexopyranosyl]oxy}-5,12-naphthacenedione] | 18.95 days | 4.68 days |
